The results in this text go back to patent publication US9499538B2, “Estrogen receptor modulators and uses thereof” (Seragon Pharmaceuticals, Inc., priority 2012, dated 2016).

Assay [1] concerns MCF-7 cells. The experiment in a line: Breast Cancer Cell Viability Assays (MCF-7, CellTiter-Glo). In kind it is cell-based. The following applies: 5 days' compound exposure; for IC50: Homo sapiens, MCF7, 120 h. As for the experimental part: MCF-7 cells were adjusted to a concentration of 20,000 cells per mL in RPMI containing 10% FBS and 20 mM HEPES. 16 microliters of the cell suspension (320 cells) was added to each well of a 384 well plate, and the cells were incubated overnight to allow the cells to adhere. The following day an eleven point, serial semilog dilution of each compound was added to the cells in 16 μL at a final concentration ranging from 0.3-0.000003 μM. After 5 days' compound exposure, 16 μL of CellTiter-GLo (Promega, Madison Wis.) was added to the cells, and the relative luminescence units (RLUs) of each well were determined. CellTiter-Glo added to 32 μL of medium without cells was used to obtain a background value. The Percent viability of each sample was determined as follows: (RLU sample−RLU background/RLU untreated cells−RLU background)×100=% viability. […]
For orientation: In ATP-based viability assays light output follows the ATP content of the culture.

The target in assay [2] is T1, ER-α in MCF-7 cells (Homo sapiens, UniProt P03372).
T1 construct: endogenous in cells; host or cells: MCF-7
T1 sequence (P03372 1-595): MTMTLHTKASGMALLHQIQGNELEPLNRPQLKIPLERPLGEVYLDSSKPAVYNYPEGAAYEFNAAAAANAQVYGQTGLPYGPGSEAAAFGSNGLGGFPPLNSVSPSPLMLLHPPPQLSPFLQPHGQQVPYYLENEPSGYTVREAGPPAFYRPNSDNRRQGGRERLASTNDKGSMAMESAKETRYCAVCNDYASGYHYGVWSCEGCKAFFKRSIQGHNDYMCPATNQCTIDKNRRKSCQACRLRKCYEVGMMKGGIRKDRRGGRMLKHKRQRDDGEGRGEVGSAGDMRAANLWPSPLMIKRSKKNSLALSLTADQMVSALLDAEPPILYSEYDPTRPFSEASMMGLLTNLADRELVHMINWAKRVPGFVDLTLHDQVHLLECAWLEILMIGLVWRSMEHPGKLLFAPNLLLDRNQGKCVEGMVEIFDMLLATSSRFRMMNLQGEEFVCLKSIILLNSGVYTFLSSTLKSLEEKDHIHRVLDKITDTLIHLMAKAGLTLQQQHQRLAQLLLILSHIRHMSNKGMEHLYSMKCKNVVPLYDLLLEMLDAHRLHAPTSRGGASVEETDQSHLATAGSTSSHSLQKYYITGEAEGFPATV
The experiment in a line: Breast Cancer Cell ER-α In Cell Western Assay (SP1). It is filed as cell-based. The following applies: 4 or 24 hr post compound addition; for Emax: MCF7, SP1 antibody, read-out: ER-α In Cell Western Assay (SP1) Max Response; for DC50: SP1 antibody, read-out: ER-α In Cell Western Assay (SP1) IC50. As for the experimental part:
MCF-7 cells were adjusted to a concentration of 200,000 cells per mL in RPMI containing 10% charcoal-stripped FBS and 20 mM HEPES. 16 microliters of the cell suspension (3200 cells) was added to each well of a poly-D-lysine 384 well plate, and the cells were incubated overnight to allow the cells to adhere. The following day an eleven point, serial semilog dilution of each compound was added to the cells in 16 μL at a final concentration ranging from 0.3-0.000003 μM. At 4 or 24 hr post compound addition, the cells were fixed (10% formalin in PBS) for 20 minutes. Cells were permeablized in PBS 0.1% Triton and blocked with LICOR blocking buffer (50 μl/well, 90′). The wells were then incubated overnight at 4° C. with SP1 rabbit monoclonal Ab (Thermo Scientific) diluted 1:1000 in LICOR blocking buffer/0.1% Tween-20. Wells which were treated with blocking buffer with Tween but no antibody were used as a background control. Wells were washed with 0.1% Tween-20/PBS and then incubated in goat anti-rabbit IRDye™ 800CW (LICOR Inc.; 1:10000) and DRAQ5 DNA dye (1:2000 for 2 mM stock) diluted in LICOR blocking buffer containing 0.1% Tween-20 and 0.01% SDS for 60 minutes. Cells were washed (50 μl/well, 5′ each) in 0.1% Tween-20/PBS. Plates were scanned on a LICOR Odyssey infrared imaging system. Integrated intensities in the 800 nm channel and 700 nm channel were measured to determine levels of ER and DNA respectively. Percent ER levels were determined as follows: (Integrated intensity 800 nm sample/integrated intensity 700 nm sample)/(Integrated intensity 800 nm untreated cells/integrated intensity 700 nm untreated cells)×100=% ER levels. […]

For `O=C(O)/C=C/c1ccc(/C(=C(\c2ccc(F)cc2Cl)C2CCC2)c2ccc3[nH]ncc3n2)cc1` [Example 34, (E)-3-(4-((E)-2-(2-Chloro-4-fluorophenyl)-2-cyclobutyl-1-(1H-pyrazolo[4,3-b]pyridin-5-yl)vinyl)phenyl)acrylic acid], in assay [1], the “MCF7 Viability Assay Max Response” value was “++ (++ = a single % value ≧ 40%)” and the IC50 is not above 100 nM. In assay [2], the Emax is not below 40% and the DC50 was not above 100 nM.

Consider `CC(C)/C(=C(/c1ccc(/C=C/C(=O)O)cc1)c1ccc2[nH]ncc2c1)c1ccccc1Cl` [Example 35, (E)-3-(4-((E)-2-(2-Chlorophenyl)-1-(1H-indazol-5-yl)-3-methylbut-1-en-1-yl)phenyl)acrylic acid], for which, in assay [1], the “MCF7 Viability Assay Max Response” value is on record as “++ (++ = a single % value ≧ 40%)” and the IC50 is not above 100 nM. Further, in assay [2], the Emax was not below 40% and the DC50 was not above 100 nM.

Regarding `O=C(O)/C=C/c1ccc(/C(=C(\c2ccccc2)C2CCC2)c2ccc3[nH]nc(F)c3c2)cn1` [Example 36, (E)-3-(5-((Z)-2-Cyclobutyl-1-(3-fluoro-1H-indazol-5-yl)-2-phenylvinyl)pyridin-2-yl)acrylic acid], in assay [1], the “MCF7 Viability Assay Max Response” value was “++ (++ = a single % value ≧ 40%)” and the IC50 is not above 100 nM. For the same compound, in assay [2], the Emax is not below 40% and the DC50 was not above 100 nM.

For the compound `Cc1cc(/C(=C(\c2ccccc2)C2CCC2)c2ccc3[nH]nc(F)c3c2)ccc1/C=C/C(=O)O` [Example 37, (E)-3-(4-((E)-2-Cyclobutyl-1-(3-fluoro-1H-indazol-5-yl)-2-phenylvinyl)-2-methylphenyl)acrylic acid], in assay [1], the “MCF7 Viability Assay Max Response” value was “++ (++ = a single % value ≧ 40%)” and the IC50 was not above 100 nM. Further, in assay [2], the Emax is not below 40% and the DC50 is not above 100 nM.

As to `COc1cc(/C=C/C(=O)O)ccc1/C(=C(\c1ccccc1)C1CCC1)c1ccc2[nH]nc(F)c2c1` [Example 38, (E)-3-(4-((Z)-2-Cyclobutyl-1-(3-fluoro-1H-indazol-5-yl)-2-phenylvinyl)-3-methoxyphenyl)acrylic acid], in assay [1], the “MCF7 Viability Assay Max Response” value is “++ (++ = a single % value ≧ 40%)” and the half-maximal inhibitory concentration (IC50) is not above 100 nM. Besides, in assay [2], the Emax was not below 40% and the DC50 is not above 100 nM.

Take `Fc1n[nH]c2ccc(/C(=C(/c3ccccc3)C3CCC3)c3ccc(/C=C/c4cnc[nH]4)cc3)cc12` [Example 39, 5-((E)-1-(4-((E)-2-(1H-Imidazol-5-yl)vinyl)phenyl)-2-cyclobutyl-2-phenylvinyl)-3-fluoro-1H-indazole]: in assay [1], the “MCF7 Viability Assay Max Response” value is “++ (++ = a single % value ≧ 40%)” and the IC50 is not above 100 nM. In addition, in assay [2], the Emax is not below 40% and the DC50 was not above 100 nM.

`N#Cc1ccc(/C(=C(\c2ccc(/C=C/C(=O)O)cc2)c2ccc3[nH]nc(F)c3c2)C2CCC2)c(Cl)c1` [Example 40, (E)-3-(4-((E)-2-(2-Chloro-4-cyanophenyl)-2-cyclobutyl-1-(3-fluoro-1H-indazol-5-yl)vinyl)phenyl)acrylic acid]: in assay [1], the “MCF7 Viability Assay Max Response” value is given as “++ (++ = a single % value ≧ 40%)” and the IC50 is not above 100 nM. In assay [2], the Emax was not below 40% and the DC50 is not above 100 nM.

As to `CC/C(=C(/c1ccc(/C=C/C(=O)O)cc1)c1ccc2[nH]ncc2c1)c1cccc(S(=O)(=O)C(F)(F)F)c1` [Example 41, (E)-3-(4-((E)-1-(1H-Indazol-5-yl)-2-(3-((trifluoromethyl)sulfonyl)phenyl)but-1-en-1-yl)phenyl)acrylic acid], in assay [1], the “MCF7 Viability Assay Max Response” value is reported as “++ (++ = a single % value ≧ 40%)” and the IC50 was not above 100 nM. In assay [2], the Emax was not below 40% and the DC50 was not above 100 nM.

In the case of `COc1ccc(/C(=C(\c2ccc(/C=C/C(=O)O)cc2)c2ccc3[nH]ncc3c2)C2CCC2)c(C#N)c1` [Example 42, (E)-3-(4-((E)-2-(2-Cyano-4-methoxyphenyl)-2-cyclobutyl-1-(1H-indazol-5-yl)vinyl)phenyl)acrylic acid], in assay [1], the “MCF7 Viability Assay Max Response” value is on record as “++ (++ = a single % value ≧ 40%)” and the IC50 was not above 100 nM. In assay [2], the Emax is not below 40% and the DC50 was not above 100 nM.

For the compound `N#Cc1ccc(/C(=C(\c2ccc(/C=C/C(=O)O)cc2)c2ccc3[nH]ncc3c2)C2CCC2)c(Cl)c1` [Example 43, (E)-3-(4-((E)-2-(2-Chloro-4-cyanophenyl)-2-cyclobutyl-1-(1H-indazol-5-yl)vinyl)phenyl)acrylic acid], in assay [1], the “MCF7 Viability Assay Max Response” value is listed as “++ (++ = a single % value ≧ 40%)” and the 50% inhibitory concentration (IC50) was not above 100 nM. Besides, in assay [2], the Emax was not below 40% and the DC50 was not above 100 nM.

In the case of `COc1ccc(/C(=C(\c2ccc(/C=C/C(=O)O)cc2)c2ccc3[nH]nc(F)c3c2)C2CCC2)c(C#N)c1` [Example 44, (E)-3-(4-((E)-2-(2-Cyano-4-methoxyphenyl)-2-cyclobutyl-1-(3-fluoro-1H-indazol-5-yl)vinyl)phenyl)acrylic acid], in assay [1], the “MCF7 Viability Assay Max Response” value is on record as “++ (++ = a single % value ≧ 40%)” and the IC50 was not above 100 nM. In assay [2], the Emax was not below 40% and the DC50 was not above 100 nM.

As to `O=C(O)/C=C/c1ccc(/C(=C(\c2cccc(S(=O)(=O)C(F)(F)F)c2)C2CCC2)c2ccc3[nH]nc(F)c3c2)cc1` [Example 45, (E)-3-(4-((E)-2-Cyclobutyl-1-(3-fluoro-1H-indazol-5-yl)-2-(3-((trifluoromethyl)sulfonyl)phenyl)vinyl)phenyl)acrylic acid], in assay [1], the “MCF7 Viability Assay Max Response” value is given as “++ (++ = a single % value ≧ 40%)” and the IC50 was not above 100 nM. In assay [2], the Emax was not below 40% and the DC50 was not above 100 nM.

For the compound `Cc1cnccc1/C(=C(\c1ccc(/C=C/C(=O)O)cc1)c1ccc2[nH]nc(F)c2c1)C1CCC1` [Example 46, (E)-3-(4-((E)-2-Cyclobutyl-1-(3-fluoro-1H-indazol-5-yl)-2-(3-methylpyridin-4-yl)vinyl)phenyl)acrylic acid], in assay [1], the “MCF7 Viability Assay Max Response” value is “++ (++ = a single % value ≧ 40%)” and the IC50 was not above 100 nM. Besides, in assay [2], the Emax was not below 40% and the DC50 is not above 100 nM.

For `O=C(O)/C=C/c1ccc(/C(=C(\c2ccncc2C(F)(F)F)C2CCC2)c2ccc3[nH]nc(F)c3c2)cc1` [Example 47, (E)-3-(4-((E)-2-Cyclobutyl-1-(3-fluoro-1H-indazol-5-yl)-2-(3-(trifluoromethyl)pyridin-4-yl)vinyl)phenyl)acrylic acid], in assay [1], the “MCF7 Viability Assay Max Response” value was “++ (++ = a single % value ≧ 40%)” and the 50% inhibitory concentration (IC50) is not above 100 nM. In assay [2], the Emax is not below 40% and the DC50 is not above 100 nM.

`N#Cc1ccc(/C(=C(\c2ccc(/C=C/C(=O)O)cc2)c2ccc3[nH]nc(F)c3c2)C2CCC2)c(F)c1` [Example 48, (E)-3-(4-((E)-2-(4-Cyano-2-fluorophenyl)-2-cyclobutyl-1-(3-fluoro-1H-indazol-5-yl)vinyl)phenyl)acrylic acid]: in assay [1], the “MCF7 Viability Assay Max Response” value is listed as “++ (++ = a single % value ≧ 40%)” and the IC50 is not above 100 nM. For the same compound, in assay [2], the Emax is not below 40% and the DC50 is not above 100 nM.

For orientation: IC50 means the point on the concentration scale where inhibition reaches its midpoint. Low readings indicate greater potency in that assay, high ones weaker potency in that assay.
